From article PMC6002460, “Pharmacological evaluation of new constituents of “Spice”: synthetic cannabinoids based on indole, indazole, benzimidazole and carbazole scaffolds” (Forensic Toxicology, 2018)
Like-named read-outs stand apart in the source and are kept apart here.

Assays:
[1] = biological target: T1, human CB1 receptor (Homo sapiens, UniProt P21554); experiment: biochemical; type: binding; settings: [3H]CP55,940 0.1 nM, CHO cell membranes; read-out: Ki ± SEM Human CB1
T1 construct: expressed in transfected cells; host or cells: CHO cells (membrane preparations)

[2] = biological target: T2, human GPR55 (Homo sapiens, UniProt Q9Y2T6); experiment: β-Arrestin PathHunter assay, recombinant CHO cells expressing GPR55; type: cell-based; settings: for Human GPR55 % activation / Human GPR55 % inhibition: value in parentheses; for Human GPR55 % inhibition: antagonist mode versus LPI 1 µM
T2 construct: host or cells: CHO cells
Experimental: (§1) β-Arrestin assays were performed in recombinant CHO cells expressing either the human GPR18 or the human GPR55 as described before using the β-galactosidase enzyme fragment complementation technology (β-arrestin PathHunter™ assay; DiscoverX, Fremont, CA, USA).
(§2) The orphan receptors GPR18 and GPR55 can interact with certain natural and synthetic cannabinoids. […] Therefore, we investigated the new series of indole, indazole, benzimidazole and carbazole-derived structures in β-arrestin assays at GPR18 and GPR55 (Table 2). […] For the lipophilic substitutions, the following rank order of potency was observed: ethyl > methyl > chloro > fluoro. Therefore, it can be concluded that a lipophilic substitution in position 4 of the naphthyl residue was a requirement for GPR55 inhibition.

[3] = biological target: T3, human CB2 receptor (Homo sapiens, UniProt P34972); experiment: biochemical; type: binding; settings: [3H]CP55,940 0.1 nM, CHO cell membranes; read-out: Ki ± SEM Human CB2
T3 construct: expressed in transfected cells; host or cells: CHO cells (membrane preparations)

[4] = biological target: T4, human GPR18 (Homo sapiens, UniProt Q14330); experiment: β-Arrestin PathHunter assay, recombinant CHO cells expressing GPR18; type: cell-based; settings: for Human GPR18 % activation / Human GPR18 % inhibition: value in parentheses
T4 construct: host or cells: CHO cells
T4 sequence (Q14330 1-331): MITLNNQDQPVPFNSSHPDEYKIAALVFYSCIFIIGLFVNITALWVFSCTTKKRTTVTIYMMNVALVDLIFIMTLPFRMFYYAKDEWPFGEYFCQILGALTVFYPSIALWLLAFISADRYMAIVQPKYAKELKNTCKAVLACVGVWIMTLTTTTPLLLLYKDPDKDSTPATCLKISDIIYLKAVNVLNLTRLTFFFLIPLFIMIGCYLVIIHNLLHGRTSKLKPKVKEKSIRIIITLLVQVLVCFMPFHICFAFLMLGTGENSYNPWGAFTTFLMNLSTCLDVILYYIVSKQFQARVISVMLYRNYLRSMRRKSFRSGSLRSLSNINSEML
Experimental: as §1, §2

[5] = biological target: CB1 receptor; settings: membrane potential assay, cited from earlier work
[6] = biological target: CB2 receptor; settings: membrane potential assay, cited from earlier work

T3 sequence (P34972 whole entry): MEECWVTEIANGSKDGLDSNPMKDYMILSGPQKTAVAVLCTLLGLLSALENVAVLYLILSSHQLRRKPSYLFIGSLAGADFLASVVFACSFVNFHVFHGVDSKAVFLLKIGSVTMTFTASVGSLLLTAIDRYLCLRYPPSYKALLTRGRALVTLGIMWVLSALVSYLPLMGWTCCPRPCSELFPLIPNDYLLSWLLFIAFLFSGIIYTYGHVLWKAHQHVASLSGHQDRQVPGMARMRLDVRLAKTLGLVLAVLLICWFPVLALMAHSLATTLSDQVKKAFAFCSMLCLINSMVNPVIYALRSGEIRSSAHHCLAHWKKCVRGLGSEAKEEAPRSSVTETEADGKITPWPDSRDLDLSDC
T2 sequence (Q9Y2T6 whole entry): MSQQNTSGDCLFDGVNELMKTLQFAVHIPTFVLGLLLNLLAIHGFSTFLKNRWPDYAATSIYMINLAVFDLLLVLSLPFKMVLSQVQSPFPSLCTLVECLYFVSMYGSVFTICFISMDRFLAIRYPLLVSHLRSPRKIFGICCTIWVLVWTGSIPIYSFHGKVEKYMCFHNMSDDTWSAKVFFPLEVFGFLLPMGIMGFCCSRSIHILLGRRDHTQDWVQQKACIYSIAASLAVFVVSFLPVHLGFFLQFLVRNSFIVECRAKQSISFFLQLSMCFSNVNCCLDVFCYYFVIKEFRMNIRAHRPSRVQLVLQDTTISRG
T1 sequence (P21554 whole entry): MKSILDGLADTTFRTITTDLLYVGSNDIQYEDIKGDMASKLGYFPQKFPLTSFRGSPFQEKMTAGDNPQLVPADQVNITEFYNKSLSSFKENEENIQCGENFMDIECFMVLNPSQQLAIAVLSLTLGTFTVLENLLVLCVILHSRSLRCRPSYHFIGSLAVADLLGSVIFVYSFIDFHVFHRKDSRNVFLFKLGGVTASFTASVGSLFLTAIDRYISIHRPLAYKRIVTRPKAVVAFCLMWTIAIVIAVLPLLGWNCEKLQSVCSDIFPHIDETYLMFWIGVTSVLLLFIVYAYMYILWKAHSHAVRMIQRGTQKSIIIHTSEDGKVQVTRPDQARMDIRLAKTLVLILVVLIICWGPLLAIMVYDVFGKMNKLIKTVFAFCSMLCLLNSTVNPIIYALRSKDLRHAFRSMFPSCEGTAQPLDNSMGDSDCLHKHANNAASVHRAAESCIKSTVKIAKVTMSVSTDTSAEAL

SMILES	Ki [1] [nM]	EC50 [2] [nM]	IC50 [2] [nM]	Ki [3] [nM]	EC50 [4] [nM]	IC50 [4] [nM]	Human GPR18 % activation ([4]; agonist mode) [%]	Human GPR18 % inhibition ([4]; antagonist mode)	EC50 ([5]; ref Banister et al. [38]) [nM]	EC50 ([6]; ref Banister et al. [38]) [nM]	Human GPR55 % activation ([2]; agonist mode)	Human GPR55 % inhibition [2] [%]	EC50 ([5]; ref Banister et al. [42]) [nM]	EC50 ([6]; ref Banister et al. [42]) [nM]	EC50 ([2]; agonist mode, read-out: Human GPR55 EC50) [nM]	IC50 ([2]; antagonist mode versus lysophosphatidylinositol (LPI, 1 µM), read-out: Human GPR55 IC50) [nM]	EC50 ([4]; agonist mode, read-out: Human GPR18 EC50) [nM]	IC50 ([4]; antagonist mode, read-out: Human GPR18 IC50) [nM]
O=C(c1ccc(F)c2ccccc12)c1cn(CCCCCF)c2ccccc12 [compound 36, F-2201]	0.852 ± 0.192	> 10000	22100 ± 12200	1.89 ± 0.57	> 10000	> 10000	18	14%	–	–	–	–	–	–	–	–	–	–
COC(=O)[C@@H](NC(=O)c1nn(CC2CCCCC2)c2ccccc12)C(C)(C)C [compound 14]	0.135 ± 0.028	> 10000	10300 ± 1700	0.222 ± 0.034	> 10000	~10000	27	51%	10	128	–	–	–	–	–	–	–	–
COC(=O)[C@@H](NC(=O)c1nn(CCCCCF)c2ccccc12)C(C)C [compound 8, 5F-AMB]	1.13 ± 0.48	> 10000	> 10000	1.38 ± 0.22	> 10000	> 10000	1	–	1.9	10	14%	–	–	–	–	–	–	–
CC(C)[C@H](NC(=O)c1nn(CCCCCCl)c2ccccc12)C(N)=O [compound 17, 5Cl-AB-PINACA]	4.06 ± 1.95	> 10000	> 10000	12 ± 1.7	> 10000	> 10000	4	0%	–	–	17%	–	–	–	–	–	–	–
COC(=O)[C@@H](NC(=O)c1cn(CC2CCCCC2)c2ccccc12)C(C)(C)C [compound 13, MDMB-CHMICA]	0.41 ± 0.141	> 10000	> 10000	0.354 ± 0.05	> 10000	14100 ± 3100	5	–	10	71	5%	38	–	–	–	–	–	–
CCCCCn1nc(C(=O)N[C@H](C(=O)OC)C(C)C)c2ccccc21 [compound 6, AMB]	0.866 ± 0.057	> 10000	> 10000	0.973 ± 0.104	> 10000	> 10000	42	15%	–	–	15%	28	–	–	–	–	–	–
COC(=O)[C@@H](OC(=O)c1nn(CC2CCCCC2)c2ccccc12)C(C)(C)C [compound 34]	10.4 ± 7.4	> 10000	9290 ± 1700	1.11 ± 0.14	> 10000	12600 ± 3500	0	–	–	–	1%	–	–	–	–	–	–	–
CC(C)(C)[C@H](NC(=O)c1nn(Cc2ccc(F)cc2)c2ccccc12)C(N)=O [compound 24, ADB-FUBINACA]	–	> 10000	> 10000	0.339 ± 0.059	> 10000	> 10000	7	16%	–	–	7%	–	1.2	3.5	–	–	–	–
COC(=O)[C@@H](NC(=O)c1cn(CCCCCF)c2ccccc12)C(C)C [compound 7, MMB-2201]	15.2 ± 5	> 10000	> 10000	19.8 ± 4.2	> 10000	> 10000	2	–	–	–	5%	–	–	–	–	–	–	–
NC(=O)[C@H](Cc1ccccc1)NC(=O)c1nn(CCCCCF)c2ccccc12 [compound 28, PX-2]	127 ± 43	> 10000	> 10000	17.4 ± 1.4	> 10000	> 10000	–	15%	–	–	16%	–	–	–	–	–	–	–
NC(=O)[C@H](Cc1ccccc1)NC(=O)c1cn(CCCCCF)c2ccccc12 [compound 27, PX-1]	485 ± 117	> 10000	> 10000	164 ± 17	> 10000	> 10000	15	–	–	–	6%	1	–	–	–	–	–	–
CCCCCn1c2ccccc2c2cc(C(=O)c3cccc4ccccc34)ccc21 [compound 39, EG-018]	–	–	–	2.27 ± 0.38	–	–	2	–	–	–	0%	1	–	–	> 10000	> 10000	> 10000	> 10000
CC(C)(C)[C@H](NC(=O)c1cn(CC2CCCCC2)c2ccccc12)C(N)=O [compound 22, ADB-CHMICA]	1.24 ± 0.36	> 10000	> 10000	0.628 ± 0.231	> 10000	> 10000	8	14%	–	–	17%	8	–	–	–	–	–	–
CC(C)(C)[C@H](NC(=O)c1nn(CC2CCCCC2)c2ccccc12)C(N)=O [compound 25]	0.333 ± 0.059	> 10000	> 10000	0.331 ± 0.048	> 10000	> 10000	6	> 10 (10%)	–	–	16%	–	–	–	–	–	–	–
O=C(c1cccc2ccccc12)c1cn(Cc2ccc(F)cc2)c2ccccc12 [compound 35, FUB-JWH-018]	3.27 ± 1.76	> 10000	> 10000	1.34 ± 0.48	> 10000	> 10000	20	30%	–	–	7%	30	–	–	–	–	–	–
CC(C)[C@H](NC(=O)c1cn(CCCCCF)c2ccccc12)C(N)=O [compound 15, 5F-AB-PICA]	35 ± 7.7	> 10000	> 10000	89 ± 33.2	> 10000	> 10000	23	–	–	–	> 10 (10%)	–	5.2	8.9	–	–	–	–
COC(=O)[C@@H](NC(=O)c1nn(Cc2ccc(F)cc2)c2ccccc12)C(C)C [compound 9, FUB-AMB]	0.387 ± 0.135	> 10000	> 10000	0.536 ± 0.115	> 10000	> 10000	–	11%	2	18	4%	17	–	–	–	–	–	–
CC[C@H](C)[C@H](NC(=O)c1nn(CCCCCF)c2ccccc12)C(N)=O (single isomer, unassigned; isomer 2) [compound 26, 5F-ADB-PINACA-isomer 2]	3.1 ± 1.53	> 10000	> 10000	4.28 ± 2.86	> 10000	> 10000	8	–	–	–	2%	–	–	–	–	–	–	–
CC(C)[C@H](NC(=O)c1nn(CCCCCF)c2ccccc12)C(N)=O [compound 16, 5F-AB-PINACA]	4.96 ± 1.37	> 10000	> 10000	3.77 ± 0.25	> 10000	> 10000	12	> 10 (10%)	–	–	15%	–	0.48	2.6	–	–	–	–
O=C(c1ccc(Cl)c2ccccc12)c1cn(CCCCCF)c2ccccc12 [compound 37, Cl-2201]	0.772 ± 0.101	> 10000	7120 ± 1260	1.18 ± 0.19	> 10000	> 10000	16	4%	–	–	–	–	–	–	–	–	–	–
CCCCCn1cc(C(=O)N[C@H](C(=O)OC)C(C)C)c2ccccc21 [compound 5, MMB-018]	15.1 ± 5.9	> 10000	> 10000	14 ± 0.8	> 10000	> 10000	13	–	–	–	5%	5	–	–	–	–	–	–
O=C(Nc1cccc2ccccc12)c1cn(Cc2ccc(F)cc2)c2ccccc12 [compound 4, FDU-NNEI]	7.42 ± 2.51	> 10000	> 10000	64 ± 15	> 10000	> 10000	20	–	–	–	13%	2	–	–	–	–	–	–
